How the values were obtained:
[1] = tested on: EGFP-MAPK14 fusion protein; assay: EGFP-MAPK14 fusion protein translocation assay for activation of MAPK14 (N:C ratio) in stable SW1353 cells; type: cell-based, human
Protocol: During assay preparation and throughout the assay, background stress response was kept to a minimum; microplates, cells and solutions were maintained at 37° C., 5% CO2, and 95% relative humidity. All inhibitors and activators were added to cells in complete medium.
50 μl of the prepared test activator in complete medium and control compounds were added and incubated at 37° C., 5% CO2, and 95% relative humidity. For fixed cell assays, 150 μl 10% (v/v) formalin (4% formaldehyde) was added at room temperature for 20 min. Cells were washed twice with PBS and nuclei were stained with Hoechst (10 μM) in PBS prior to imaging.

[2] = tested on: phospho-(Thr180/Tyr182)-p38(MAPK14); assay: Anti-phospho-p38 immunofluorescence assay in SW1353 cells; type: cell-based, human; details: 30 min treatment, fixed; n=8; read-out: EC50, immunofluorescence assay (Alexa647-anti-phospho-p38 signal)
Protocol: The temporal and biological response of the EGFP-MAPK14 assay was validated through co-analysis with a recognised assay for p38 (MAPK14) activation—an immunofluorescence assay targeting phospho-(Thr180/Tyr182)-p38(MAPK14). […] Cells were then washed (1% goat serum, 0.1% Tween in PBS), permeabilized (0.5% Triton X in wash buffer) for 15 minutes at room temperature and washed again. 50 μl of rabbit anti-phospho-p38 antibody at 1:200 (Zymed Laboratories, San Francisco, USA) was added and incubated for 1 hr at room temperature prior to two washes and the addition of 50 μl of goat-anti rabbit Alexa647 antibody (Molecular Probes) at 1:200 and incubation for 1 hr at room temperature. After 2 washes, cells were imaged in PBS to detect Hoechst, EGFP-MAPK14 and Alexa647 on an IN Cell Analyzer 1000 instrument.

IL-1β
EC80 ([1]; concentration used as activator in the inhibitor assay): 12 pM
Translocation of EGFP-MAPK14 signal from cytoplasm to nucleus ([1]; fixed cell assay, 316 pM for 30 minutes (FIG. 19)): clear translocation
Translocation of EGFP-MAPK14 signal from cytoplasm to nucleus ([1]; living cells, 12 pM): clear translocation
EC50 [2]: 7.82 pM

COc1ccc(C[C@H]2NC[C@H](O)[C@H]2OC(C)=O)cc1 [anisomycin]
Nuclear accumulation of EGFP-MAPK14 fusion protein ([1]; live cells, 300 nM for 15 mins): clearly demonstrate significant nuclear accumulation

OC[C@@H](O)[C@@H](O)[C@H](O)[C@@H](O)CO [sorbitol]
Duration of stimulation after initial exposure ([1]; live cells, 0.4 M): at least 90 minutes
Nuclear accumulation of EGFP-MAPK14 fusion protein ([1]; live cells, 0.4 M for 15 mins): clearly demonstrate nuclear accumulation

— patent US20080227131A1, “Signalling Assay and Cell Line” (GE HEALTHCARE UK LIMITED, priority 2005, published 2008)
